Reference: ChEMBL document CHEMBL1143511, “Antitubercular agents. Part 1: synthesis of phthalimido- and naphthalimido-linked phenazines as new prototype antitubercular agents” (2005)
In brackets after ≈: the same amount, converted by molar mass.

What was measured:
Type in all cases: functional
[1] = tested on: Mycobacterium tuberculosis; test: Minimum inhibitory concentration tested against Mycobacterium tuberculosis resistant clinical isolates
[2] = tested on: Mycobacterium tuberculosis; test: Minimum inhibitory concentration tested against Mycobacterium tuberculosis resistant clinical isolates; Range:1-4 ug/ml
[3] = tested on: Mycobacterium tuberculosis; test: Minimum inhibitory concentration tested against Mycobacterium tuberculosis resistant clinical isolates; Range 8->16 ug/mL
[4] = tested on: Mycobacterium tuberculosis; test: Minimum inhibitory concentration tested against Mycobacterium tuberculosis resistant clinical isolates; Range 8-16 ug/mL

Structure (SMILES)	MIC [1]	further results
O=C1c2ccccc2C(=O)N1CCCCN1CCN(CC/N=c2/cc3n(-c4ccc(Cl)cc4)c4ccccc4nc-3cc2Nc2ccc(Cl)cc2)CC1	> 16 µg/mL	–
O=C1c2cccc3cccc(c23)C(=O)N1CCCN1CCN(CC/N=c2/cc3n(-c4ccc(Cl)cc4)c4ccccc4nc-3cc2Nc2ccc(Cl)cc2)CC1	> 16 µg/mL	–
O=C1c2ccccc2C(=O)N1CCCN1CCN(CC/N=c2/cc3n(-c4ccc(Cl)cc4)c4ccccc4nc-3cc2Nc2ccc(Cl)cc2)CC1	> 16 µg/mL	–
O=C1c2ccccc2C(=O)N1CCCCCN1CCN(CC/N=c2/cc3n(-c4ccc(Cl)cc4)c4ccccc4nc-3cc2Nc2ccc(Cl)cc2)CC1	–	MIC [2]: 4 µg/mL (≈ 5.27 µM)
O=C1c2cccc3cccc(c23)C(=O)N1CCCCCN1CCN(CC/N=c2/cc3n(-c4ccc(Cl)cc4)c4ccccc4nc-3cc2Nc2ccc(Cl)cc2)CC1	> 16 µg/mL	–
NNC(=O)c1ccncc1 [ISONIAZID]	–	MIC [3]: > 16 µg/mL
O=C1c2cccc3cccc(c23)C(=O)N1CCCCCCN1CCN(CC/N=c2/cc3n(-c4ccc(Cl)cc4)c4ccccc4nc-3cc2Nc2ccc(Cl)cc2)CC1	–	MIC [4]: 16 µg/mL (≈ 19.4 µM)
O=C1c2cccc3cccc(c23)C(=O)N1CCCCN1CCN(CC/N=c2/cc3n(-c4ccc(Cl)cc4)c4ccccc4nc-3cc2Nc2ccc(Cl)cc2)CC1	> 16 µg/mL	–
O=C1c2ccccc2C(=O)N1CCCCCCN1CCN(CC/N=c2/cc3n(-c4ccc(Cl)cc4)c4ccccc4nc-3cc2Nc2ccc(Cl)cc2)CC1	–	MIC [2]: 4 µg/mL (≈ 5.18 µM)
